Experimental data: paper PMC5063977 (The Journal of Biological Chemistry, 2016)

How the values were obtained:
Assay type in all cases: cell-based
RAMP3-CLR (AM2 receptor) [1] = target: T1, RAMP3-CLR (AM2 receptor) (Homo sapiens, UniProt O60896+Q16602); assay: (Ca^2+)i mobilization, HEK-293S cells, RAMP3 + CLR; conditions: HEK293S, percentage of maximal (Ca^2+)i release with 10 μM ionomycin, mean ± S.E., n = 5
T1 construct: FLAG; expressed in transfected cells; host or cells: HEK-293 or HEK-293S cells, transient transfection, 1:1 RAMP:CLR
T1 sequence (Q16602 23-461): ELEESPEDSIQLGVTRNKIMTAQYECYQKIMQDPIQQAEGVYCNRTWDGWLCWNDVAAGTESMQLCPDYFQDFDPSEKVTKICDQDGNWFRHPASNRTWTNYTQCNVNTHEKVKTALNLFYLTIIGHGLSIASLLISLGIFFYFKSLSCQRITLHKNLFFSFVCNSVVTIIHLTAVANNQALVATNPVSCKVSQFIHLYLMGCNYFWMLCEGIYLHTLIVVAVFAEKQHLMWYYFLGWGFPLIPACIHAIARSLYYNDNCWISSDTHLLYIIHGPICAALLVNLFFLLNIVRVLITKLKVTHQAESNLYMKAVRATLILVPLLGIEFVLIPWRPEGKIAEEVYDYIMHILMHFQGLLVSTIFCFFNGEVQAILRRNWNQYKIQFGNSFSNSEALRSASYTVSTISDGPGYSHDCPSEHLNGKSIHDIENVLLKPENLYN
T1 sequence (O60896 24-148): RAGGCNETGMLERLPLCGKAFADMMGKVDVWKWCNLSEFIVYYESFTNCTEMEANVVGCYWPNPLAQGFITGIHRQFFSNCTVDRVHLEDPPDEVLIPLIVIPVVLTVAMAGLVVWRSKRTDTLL
Protocol: (§1) HEK-293 cells, provided by Dr. Jügen Müller (University of Aston), were cultured in DMEM supplemented with 10% heat-inactivated FBS and kept at 37 °C in a humidified 95% air, 5% CO2 incubator. HEK-293S cells (a gift from AstraZeneca) were cultured in DMEM supplemented with 8% heat-inactivated FBS and kept at 37 °C in a humidified 95% air, 5% CO2 incubator. HEK-293 cells were transfected with FuGENE 6 (Roche Applied Science) in accordance with the manufacturer's instructions using a 1:3 (w:v) DNA:FuGENE ratio and a 1:1 ratio of RAMP to CLR. HEK-293S cells were seeded into 96-well poly-D-lysine-coated plates at a density of 15,000 cells/well (determined using a Countess^TM cell counter, Invitrogen) 1 day prior to transfection. HEK-293S cells were transiently transfected as described previously ([38]) using a 1:1 ratio of RAMP to CLR. The transfected cell lines were grown for 24–48 h prior to assaying.
(§2) Transfected HEK-293 cells were grown to confluence in black, clear bottomed, 96-well plates. […] Ligands were added robotically using a Mithras LB 940 multimode microplate reader in the range of 10 pM to 1 μM, and fluorescence was determined immediately post-injection with an excitation wavelength set to 485 nm and an emission wavelength set to 535 nm. […] Peak magnitude was calculated using five-point smoothing followed by correction against background fluorescence. […]

RAMP3-CLR (AM2 receptor) [2] = target: T1, RAMP3-CLR (AM2 receptor); assay: (Ca^2+)i mobilization, HEK-293 cells, RAMP3 + CLR; conditions: HEK293, percentage of maximal (Ca^2+)i release with 10 μM ionomycin, mean ± S.E., n = 5
Protocol: as §1, §2

[3] = target: T2, RAMP1-CLR (CGRP receptor) (Homo sapiens, UniProt O60894+Q16602); assay: (Ca^2+)i mobilization, HEK-293S cells, RAMP1 + CLR; conditions: HEK293S, percentage of maximal (Ca^2+)i release with 10 μM ionomycin, mean ± S.E., n = 5
T2 construct: FLAG; expressed in transfected cells; host or cells: HEK-293 or HEK-293S cells, transient transfection, 1:1 RAMP:CLR
T2 sequence (Q16602 23-461): as the sequence (Q16602 23-461) above
T2 sequence (O60894 27-148): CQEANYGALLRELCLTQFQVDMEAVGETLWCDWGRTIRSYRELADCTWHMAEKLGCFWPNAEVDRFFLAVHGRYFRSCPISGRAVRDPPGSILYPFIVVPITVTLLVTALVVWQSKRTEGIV
Protocol: HEK-293 cells were transfected with FuGENE 6 (Roche Applied Science) in accordance with the manufacturer's instructions using a 1:3 (w:v) DNA:FuGENE ratio and a 1:1 ratio of RAMP to CLR. […] The transfected cell lines were grown for 24–48 h prior to assaying.
Transfected HEK-293 cells were grown to confluence in black, clear bottomed, 96-well plates. […] Cells were then washed followed by the addition of 100 μl of Ca^2+-free Hanks' balanced salt solution. […] Recordings were obtained every 0.5 s for 120 s. Peak magnitude was calculated using five-point smoothing followed by correction against background fluorescence. The peak was used to generate concentration-response curves and normalized relative to 10 μM ionomycin.
Data analysis for cAMP assays was performed in GraphPad Prism 6.0f (San Diego, CA). […] These values were then used to quantify signaling bias as change in log (τ/Ka) relative to the natural cognate ligand for the respective receptor ([41]). […] Statistical differences were analyzed using one-way ANOVA or Student's t test as appropriate with post hoc Bonferroni's or Dunnett's multiple comparisons, and p < 0.05 was considered significant. […] To quantitate the ligand-dependent response in the yeast system, a strain lacking GPA1 (MMY11), grown in rich medium, was used as a standard ([72]). […]

Row | Emax (RAMP3-CLR (AM2 receptor) [1]) | Emax (RAMP3-CLR (AM2 receptor) [2]) | Emax [3] | Compound
1 | 20.1 ± 4.3% |  |  | CSCC[C@H](NC(=O)[C@H](CC(C)C)NC(=O)[C@H](CCC(N)=O)NC(=O)[C@H](Cc1c[nH]c2ccccc12)NC(=O)[C@H](CC(C)C)NC(=O)[C@H](CCCNC(=N)N)NC(=O)[C@H](Cc1c[nH]cn1)NC(=O)[C@H](CO)NC(=O)[C@H](CC(C)C)NC(=O)[C@H](CC(N)=O)NC(=O)[C@H](CCC(N)=O)NC(=O)[C@@H](NC(=O)[C@H](CCC(N)=O)NC(=O)[C@@H]1CSSC[C@H](NC(=O)CNC(=O)[C@@H](NC(=O)[C@H](CCCNC(=N)N)NC(=O)[C@H](CC(C)C)NC(=O)[C@H](CC(C)C)NC(=O)[C@H](CCC(N)=O)NC(=O)[C@H](C)NC(=O)[C@H](CCC(N)=O)NC(=O)[C@@H](N)[C@@H](C)O)C(C)C)C(=O)N[C@@H](C(C)C)C(=O)N[C@@H](CC(C)C)C(=O)NCC(=O)N[C@@H]([C@@H](C)O)C(=O)N1)C(C)C)C(=O)NCC(=O)N1CCC[C@H]1C(=O)N[C@@H](C)C(=O)NCC(=O)N[C@@H](CCCNC(=N)N)C(=O)N[C@@H](CCC(N)=O)C(=O)N[C@@H](CC(=O)O)C(=O)N[C@@H](CO)C(=O)N[C@@H](C)C(=O)N1CCC[C@H]1C(=O)N[C@H](C(=O)N[C@@H](CC(=O)O)C(=O)N1CCC[C@H]1C(=O)N[C@@H](CO)C(=O)N[C@@H](CO)C(=O)N1CCC[C@H]1C(=O)N[C@@H](Cc1c[nH]cn1)C(=O)N[C@@H](CO)C(=O)N[C@@H](Cc1ccc(O)cc1)C(N)=O)C(C)C [AM2, adrenomedullin 2]
2 | 44.3 ± 3.2% | 56.7 ± 6.6% | 38.2 ± 3.8% | CC[C@H](C)[C@H](NC(=O)[C@H](CCC(N)=O)NC(=O)[C@H](Cc1c[nH]cn1)NC(=O)[C@H](C)NC(=O)[C@H](CC(C)C)NC(=O)[C@H](CCCCN)NC(=O)[C@H](CCC(N)=O)NC(=O)[C@@H](NC(=O)[C@@H](NC(=O)[C@@H]1CSSC[C@H](NC(=O)CNC(=O)[C@H](Cc2ccccc2)NC(=O)[C@H](CO)NC(=O)[C@H](CCCNC(=N)N)NC(=O)[C@H](CC(C)C)NC(=O)CNC(=O)[C@H](CCC(N)=O)NC(=O)[C@H](Cc2ccccc2)NC(=O)[C@H](CC(N)=O)NC(=O)[C@H](CC(N)=O)NC(=O)[C@H](CCSC)NC(=O)[C@H](CO)NC(=O)[C@H](CCC(N)=O)NC(=O)[C@H](CCCNC(=N)N)NC(=O)[C@@H](N)Cc2ccc(O)cc2)C(=O)N[C@@H](CCCNC(=N)N)C(=O)N[C@@H](Cc2ccccc2)C(=O)NCC(=O)N[C@@H]([C@@H](C)O)C(=O)N1)[C@@H](C)O)C(C)C)C(=O)N[C@@H](Cc1ccc(O)cc1)C(=O)N[C@@H](CCC(N)=O)C(=O)N[C@@H](Cc1ccccc1)C(=O)N[C@H](C(=O)N[C@@H](CC(=O)O)C(=O)N[C@@H](CCCCN)C(=O)N[C@@H](CC(=O)O)C(=O)N[C@@H](CCCCN)C(=O)N[C@@H](CC(=O)O)C(=O)N[C@@H](CC(N)=O)C(=O)N[C@H](C(=O)N[C@@H](C)C(=O)N1CCC[C@H]1C(=O)N[C@@H](CCCNC(=N)N)C(=O)N[C@@H](CO)C(=O)N[C@@H](CCCCN)C(=O)N[C@H](C(=O)N[C@@H](CO)C(=O)N1CCC[C@H]1C(=O)N[C@@H](CCC(N)=O)C(=O)NCC(=O)N[C@@H](Cc1ccc(O)cc1)C(N)=O)[C@@H](C)CC)C(C)C)[C@@H](C)O [AM, adrenomedullin]
